Data from US6472416B1, “Sulfonylphenylpyrazole compounds useful as COX-2 inhibitors” (Abbott Laboratories, priority 1999, dated 2002).
pIC50: −log10 of the molar value.

Key:
[1] = target: T1, recombinant human Cox-2 (r-hu Cox-2, PGHS-2) (Homo sapiens, UniProt P35354); test: Recombinant human PGHS-2 (r-hu Cox-2) enzyme assay, PGE2 by EIA; type: biochemical; settings: for pIC50: read-out: r-hu COX2 IC50 (parenthetical values)
T1 construct: made in house; host or cells: baculovirus/Sf9 insect cells (microsomes)
T1 sequence (P35354 18-604): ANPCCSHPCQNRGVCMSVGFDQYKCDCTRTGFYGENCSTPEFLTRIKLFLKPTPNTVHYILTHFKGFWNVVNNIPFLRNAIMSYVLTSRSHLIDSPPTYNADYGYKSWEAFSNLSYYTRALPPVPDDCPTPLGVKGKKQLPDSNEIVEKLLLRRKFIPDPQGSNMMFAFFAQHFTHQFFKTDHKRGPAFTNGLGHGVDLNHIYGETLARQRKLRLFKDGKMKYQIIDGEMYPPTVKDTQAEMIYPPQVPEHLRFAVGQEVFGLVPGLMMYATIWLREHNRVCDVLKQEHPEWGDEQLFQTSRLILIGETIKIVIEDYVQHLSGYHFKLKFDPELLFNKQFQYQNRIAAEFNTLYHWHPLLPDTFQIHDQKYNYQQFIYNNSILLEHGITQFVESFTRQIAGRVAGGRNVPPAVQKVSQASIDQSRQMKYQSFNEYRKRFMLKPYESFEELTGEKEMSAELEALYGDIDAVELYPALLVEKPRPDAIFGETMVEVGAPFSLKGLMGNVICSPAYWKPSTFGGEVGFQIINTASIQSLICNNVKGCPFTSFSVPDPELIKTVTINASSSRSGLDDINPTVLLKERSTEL
Experimental: (§1) To compare the mean responses of the treatment groups, analysis of variance was applied. Percent inhibition values were determined by comparing the individual treatment mean values to the mean of the control group. Linear regression was used to estimate IC50's/ED50's in appropriate assays.
(§2) EIA reagents for prostaglandin determination were purchased from Perseptive Diagnostics, (Cambridge, Mass.). Prostaglandin E2 (PGE2) levels in lavage fluids were determined after the samples were dried under nitrogen and reconstituted with assay buffer. PGE2 levels in enzyme assays or cell culture media were measured against standards prepared in the same milieu. The immunoassays were conducted as recommended by the manufacturer. The EIA was conducted in 96 well microtiter plates (Nunc Roskilde, Denmark) and optical density was measured using a microplate reader (Vmax, Molecular Devices Corp., Menlo Park, Calif.).
(§3) Inhibition of prostaglandin biosynthesis in vitro was evaluated using recombinant human Cox-1 (r-hu Cox-1) and Cox-2 (r-hu Cox-2) enzyme assays. […] The reaction was allowed to run for 2.5 minutes at room temperature prior to quenching with HCl and neutralization with NaOH. PGE2 production in the presence and absence of the drug was determined by EIA analysis. The EIA was conducted in 96 well microtiter plates (Nunc Roskilde, Denmark) and optical density was measured using a microplate reader (Vmax, Molecular Devices Corp., Menlo Park, Calif.). EIA reagent for prostaglandin determination were purchased from Perseptive Diagnostics (Cambridge, Mass.). PGE2 levels were measured against standards prepared in the same milieu. The immunoassays were conducted as recommended by the manufacturer.
(§4) The compounds are designated by the Example Number. […] Values for Cox-2 inhibition that are parenthetical indicate IC50 values.

[2] = target: T2, recombinant human Cox-1 (r-hu Cox-1, PGHS-1) (Homo sapiens, UniProt P23219); test: Recombinant human PGHS-1 (r-hu Cox-1) enzyme assay, PGE2 by EIA; type: biochemical
T2 construct: made in house; host or cells: baculovirus/Sf9 insect cells (microsomes)
Experimental: as §1, §2, §3, §4

[3] = tested on: IL-1β induced PGE2 production in human amnionic WISH cells; test: IL-1β Induced PGE2 Production in WISH Cells; type: cell-based; settings: IL-1β 18 hour
Experimental: as §2
Human amnionic WISH cells were grown to 80% confluence in 48 well plates. Following removal of the growth medium and two washings with Gey's Balanced Salt Solution, 5 ng IL-1β/ml (UBI, Lake Placid, N.Y.) was added to the cells with or without test compound in DMSO (0.01% v/v) in Neuman-Tytell Serumless Medium (GIBCO, Grand Island, N.Y.). Following an 18 hour incubation to allow for the maximal induction of PGHS-2, the conditioned medium was removed and assayed for PGE2 content by EIA anylysis as described above.
WISH cell values indicate percent inhibition at the particular dose level.

[4] = at 100 nM, read-out: r-hu COX2 percent inhibition
[5] = at 100 μM, read-out: r-hu COX1 percent inhibition

T2 sequence (P23219 24-599): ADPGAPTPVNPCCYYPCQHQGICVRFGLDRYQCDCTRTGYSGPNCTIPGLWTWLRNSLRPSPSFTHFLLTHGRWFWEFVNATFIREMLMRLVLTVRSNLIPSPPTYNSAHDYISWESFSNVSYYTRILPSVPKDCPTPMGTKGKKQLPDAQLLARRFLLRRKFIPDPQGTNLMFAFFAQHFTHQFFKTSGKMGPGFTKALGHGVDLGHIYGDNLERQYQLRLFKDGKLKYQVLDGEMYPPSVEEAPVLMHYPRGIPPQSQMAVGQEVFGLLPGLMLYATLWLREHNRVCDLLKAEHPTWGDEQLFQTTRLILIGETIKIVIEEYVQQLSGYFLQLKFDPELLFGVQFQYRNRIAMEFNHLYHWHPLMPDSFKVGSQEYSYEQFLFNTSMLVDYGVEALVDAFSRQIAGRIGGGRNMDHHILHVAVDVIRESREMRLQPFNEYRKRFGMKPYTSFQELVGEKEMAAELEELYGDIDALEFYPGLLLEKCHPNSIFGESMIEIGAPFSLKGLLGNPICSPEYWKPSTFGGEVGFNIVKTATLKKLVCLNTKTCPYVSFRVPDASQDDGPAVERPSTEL

CS(=O)(=O)c1ccc(-c2c(-c3ccc(F)cc3)c(OCC(=O)c3cccs3)nn2CC(=O)c2cccs2)cc1 [Example 20A, 2-{4-(4-Fluorophenyl)-5-(4-(methylsulphonyl)phenyl)-3-[2-(2-thienyl)-2-oxoethoxy]-1H-pyrazol-1-yl}-1-(2-thienyl)ethan-1-one] showed a melting point of 136 to 138 °C, an inhibition at 0.1 µM [1, 4] of 38% and an inhibition at 10 µM ([2]; at 10 μM, read-out: r-hu COX1 percent inhibition) of 81%.
Work on CCn1nc(OCC(=O)C(C)(C)C)c(-c2ccccc2)c1-c1ccc(S(C)(=O)=O)cc1 [Example 33, 1-[(1-Ethyl-5-(4-(methylsulphonyl)phenyl)-4-phenyl-1H-pyrazol-3-yl)oxy]-3,3-dimethylbutan-2-one] yielded a melting point of 158 to 161 °C and an inhibition at 1 pM ([3]; Homo sapiens, at 0.001 (nM), read-out: WISH percent inhibition) of 78%.
For CS(=O)(=O)c1ccc(-c2nn3c(c2-c2ccc(F)cc2)OCC=CC3)cc1 [Example 4, 3-(4-Fluorophenyl)-2-(4-methylsulponylphenyl)-5,8-dihydropyrazolo[5,1-b][1,3]oxazepine], the “r-hu COX2 percent inhibition” value ([1]; at 10000 nM) was 62 @ 10000% and the “r-hu COX1 percent inhibition” value ([2]; at 100 μM) was 12 @ 100%.
In the case of C=CCn1nc(Oc2ccccc2)c(-c2ccc(F)cc2)c1-c1ccc(S(C)(=O)=O)cc1 [Example 14, 1-Allyl-4-Fluorophenyl-5-(4-(methylsulphonyl)phenyl)-3-phenoxy-1H-pyrazole], the “r-hu COX2 percent inhibition” value ([1]; at 10000 nM) was 37 @ 10000% and the “r-hu COX1 percent inhibition” value ([2]; at 100 μM) was 45 @ 100%.
Work on C=CCOc1nn(CC=C)c(-c2ccc(S(C)(=O)=O)cc2)c1-c1ccc(F)cc1 [Example 9, 1-allyl-3-(allyloxy)-4-(4-fluorophenyl)-5-(4-(methylsulphonyl)phenyl)-1H-pyrazole] yielded an inhibition at 1 µM ([1]; at 1000 nM, read-out: r-hu COX2 percent inhibition) of 62% and an inhibition at 100 µM [2, 5] of 36%.
For CCn1nc(OC2CSCCC2=O)c(-c2ccc(F)cc2)c1-c1ccc(S(C)(=O)=O)cc1 (stereo not shown) [Example 24, 3-[(1-Ethyl-4-(4-fluorophenyl)-5-(4-(methylsulphonyl)phenyl)-1H-pyrazol-3-yl)oxy]tetrahydro-4H-thiopyran-4-one], the melting point was 210 to 211 °C, the inhibition at 0.1 µM [1, 4] was 37% and the inhibition at 100 µM [2, 5] was 20%.
In the case of “1-(4-Fluorophenyl)-2-{[4-(4-fluorophenyl)-1-methyl-5-(4-(methylsulphonyl)phenyl)-1H-pyrazol-3-yl]oxy}ethan-1-one and; 1-(4-Fluorophenyl)-2-{[4-(4-fluorophenyl)-1-methyl-3-(4-(methylsulphonyl)phenyl)-1H-pyrazol-5-yl]oxy}ethan-1-one [Example 35]”, the WISH percent inhibition ([3]; at 0.01 (nM)) was 38 @ 0.01% and the WISH percent inhibition ([3]; at 0.1 (nM)) was 95 @ 0.1%.
With CS(=O)(=O)c1ccc(-c2c(-c3ccc(F)cc3)c(OCc3ccccc3)nn2Cc2ccccc2)cc1 [Example 7, 4-(4-Fluorophenyl)-5-(4-(methylsulphonyl)phenyl)-3-benzyloxy-1-benzyl-1H-pyrazole] the melting point was 174 to 175 °C, the inhibition at 0.1 µM [1, 4] was 42% and the inhibition at 100 µM [2, 5] was 26%.
With C=CCn1nc(OCC(=O)c2cccs2)c(-c2ccc(F)cc2)c1-c1ccc(S(C)(=O)=O)cc1 [Example 22, 2-[(1-Allyl-4-(4-fluorophenyl)-5-(4-(methylsulphonyl)phenyl)-1H-pyrazol-3-yl)oxy]-1-(2-thienyl)ethan-1-one] the melting point was 146 to 148 °C, the pIC50 [1] was 7.22 and the inhibition at 100 µM [2, 5] was 0%.
In the case of CCC(=O)COc1nn(CC(=O)CC)c(-c2ccc(S(C)(=O)=O)cc2)c1-c1ccc(F)cc1 [Example 34], the WISH percent inhibition ([3]; at 1 (nM)) was 62 @ 1%.
In the case of CCn1nc(OCC(=O)C(C)(C)C)c(-c2ccc(F)cc2)c1-c1ccc(S(N)(=O)=O)cc1 [Example 29, 1-[(1-Ethyl-4-(4-fluorophenyl)-5-(4-(aminosulphonyl)phenyl)-1H-pyrazol-3-yl)oxy]-3,3-dimethylbutan-2-one], the melting point was 196 to 198 °C, the inhibition at 0.1 µM [1, 4] was 55% and the inhibition at 100 µM [2, 5] was 54%.
CCn1nc(OCC(=O)C(C)(C)C)c(-c2ccc(F)cc2)c1-c1ccc(S(C)(=O)=O)cc1 [Example 27, 1-[(1-Ethyl-4-(4-fluorophenyl)-5-(4-(methylsulphonyl)phenyl)-1H-pyrazol-3-yl)oxy]-3,3-dimethylbutan-2-one] gave a melting point of 144 to 146 °C, a pIC50 [1] of 8.30 and an inhibition at 100 µM [2, 5] of 0%.
With CS(=O)(=O)c1ccc(-c2nn3c(c2-c2ccc(F)cc2)Oc2ccccc2C3)cc1 [Example 6, 3-(4-Fluorophenyl)-2-(4-(methylsulphonyl)phenyl)-5H-pyrazolo[1,5-b][1,3]-benzoxazine] the “r-hu COX2 percent inhibition” value ([1]; at 100 nM) was 82 @ 100% and the “r-hu COX1 percent inhibition” value ([2]; at 100 μM) was 25 @ 100%.
For CS(=O)(=O)c1ccc(-c2[nH]nc(OC3CCCCC3=O)c2-c2ccc(F)cc2)cc1 (stereo not shown) [Example 15, 2-{[4-(4-Fluorophenyl)-5-(4-methylsulphonylpheny)-1H-pyrazol-3-yl]oxy}cyclohexanone], the “r-hu COX2 percent inhibition” value ([1]; at 100 nM) was 47 @ 100% and the “r-hu COX1 percent inhibition” value ([2]; at 10 μM) was 69 @ 10%.
In the case of CC(C)(C)c1coc2c(-c3ccc(F)cc3)c(-c3ccc(S(N)(=O)=O)cc3)nn12 [Example 55], the “r-hu COX2 percent inhibition” value ([1]; at 100 nM) was 88 @ 100% and the “r-hu COX1 percent inhibition” value ([2]; at 10 μM) was 99 @ 10%.
Work on CS(=O)(=O)c1ccc(-c2c(-c3ccc(F)cc3)c(OCc3ccc(F)cc3)nn2Cc2ccc(F)cc2)cc1 [Example 8, 4-(4-fluorophenyl)-5-(4-(methylsulphonyl)phenyl)-1-(4-fluorobenzyl)-3-((4-fluorobenzyl)oxy)-1H-pyrazole] yielded an inhibition at 10 µM ([1]; at 10000 nM, read-out: r-hu COX2 percent inhibition) of 48% and an inhibition at 100 µM [2, 5] of 29%.
CCn1nc(OCC(=O)c2ccc(F)cc2)c(-c2ccc(F)cc2)c1-c1ccc(OC)cc1 [Example 18, 2-{[1-Ethyl-5-(4-methoxyphenyl)-4-(4-fluorophenyl)-1H-pyrazol-3-yl]oxy}-1-(4-fluorophenyl)ethan-1-one] gave a melting point of 170 to 171 °C, an inhibition at 0.1 µM [1, 4] of 50% and an inhibition at 100 µM [2, 5] of 7%.
For CC(C)(C)C(=O)COc1nn(CC#N)c(-c2ccc(S(C)(=O)=O)cc2)c1-c1ccc(F)cc1 [Example 28, 2-[3-(3,3-Dimethyl-2-oxobutoxy)-4-(4-fluorophenyl)-5-(4-(methylsulphonyl)phenyl)-1H-pyrazol-1-yl]acetonitrile], the melting point was 156 to 159 °C.
For NS(=O)(=O)c1ccc(-c2nn3c(-c4ccc(F)cc4)coc3c2-c2ccc(F)cc2)cc1 [Example 57, 4-[3,7-Bis(4-fluorophenyl)pyrazolo[5,1-b][1,3]oxazol-6-yl]benzenesulphonamide], the melting point was 235 to 237 °C.
For CS(=O)(=O)c1ccc(-c2nn3c(C(F)(F)F)coc3c2-c2ccc(F)cc2)cc1 [Example 50, 7-(4-Fluorophenyl)-6-(4-(methylsulphonyl)phenyl)-3-(trifluoromethyl)pyrazolo[5,1-b][1,3]oxazole], the melting point was 186 to 189 °C.
CCn1nc(OCC(=O)c2cccs2)c(-c2ccc(F)cc2)c1-c1ccc(S(C)(=O)=O)cc1 [Example 21, 2-[(1-Ethyl-4-(4-fluorophenyl)-5-(4-(methylsulphonyl)phenyl)-1H-pyrazol-3-yl)oxy]-1-(2-thienyl)ethan-1-one] gave a melting point of 163 to 164 °C, a pIC50 [1] of 7.51 and an inhibition at 100 µM [2, 5] of 3%.
